Columns and labels:
[1] = cited from earlier work
[2] = Example II irritation studies of nasal spray solutions without insulin (10 days); format: in vivo, human; conditions: longer than 5 days, polysorbate-80 added to nasal spray solution
Procedure: Chronic irritation studies, i.e., longer than 5 days, using polysorbate-80 according to the present invention have also been carried out.
Studies were carried out to determine the effect on nasal irritation of the addition of varying amounts of polysorbate-80 to nasal spray solutions containing N-9. […] In each study ten normal subjects were treated with one squirt (about 0.15 ml) of the nasal spray solution three times a day for ten consecutive days. After administration, the subjects were questioned about any symptoms and findings recorded. The nasal passages were examined on the fifth and tenth days of treatment by an ENT ([…], nose and throat) specialist and findings recorded.
The nasal spray solutions used in the study comprised 1% of a mixture of polysorbate-80:N-9, 1:9, wt:wt; 0.5% of a mixture of polysorbate-80:N-9, 1:9, wt:wt; 0.25% of a mixture of polysorbate-80:N-9, 1:9, wt:wt; 1% of a mixture of polysorbate-80:N-9, 1:3, wt:wt; 0.5% of a mixture of polysorbate-80:N-9, 1:3, wt:wt; 0.25% of a mixture of polysorbate-80:N-9, 1:3, wt:wt; 0.1% N-9 or a saline placebo. All of the nasal spray solutions produced minor changes in nasal mucosa and minor symptomatic complaints but the number encountered with 0.5% P-80:N-9, 1:9, and 0.5% P-80:N-9:1:3 (4 out of 10 subjects in each group) most closely paralleled the saline placebo (7 out of 20 subjects).

Substance	promotion of insulin absorption ([1]; 0.1% laureth-9, nasally)	absorption of nasally administered insulin ([1]; humans)	tolerability of nasal administration ([1]; laureth-9 at 0.1% by weight, nasally)	nasal irritation accompanying administration ([1]; nasally administered insulin in humans, effects proportional to laureth-9 concentration)	chronic irritation [2]
laureth-9	only moderately effective	enhanced absorption	tolerated by all subjects tested	often accompanied by nasal irritation such as stinging, congestion and rhinorrhea	–
polysorbate-80	–	–	–	–	reduces chronic irritation

Source: US5902789A, “Nasal administration of drugs” (Fisons Corporation, priority 1995, dated 1999)
